Results from ChEMBL document CHEMBL1132937, “Protease inhibitors: synthesis of potent bacterial collagenase and matrix metalloproteinase inhibitors incorporating N-4-nitrobenzylsulfonylglycine hydroxamate moieties” (J Med Chem, 2000).

Legend:
Neutrophil collagenase = Neutrophil collagenase (Homo sapiens, UniProt P22894)
Description: Inhibitory activity against the Matrix Metalloprotease-8

[1] = biological target: Matrix metalloproteinase-9 (Homo sapiens, UniProt P14780)
Description: Inhibitory activity against the Matrix metalloprotease-9

[2] = biological target: 72 kDa type IV collagenase (Homo sapiens, UniProt P08253)
Description: Inhibitory activity against the Matrix Metalloprotease 2 (MMP-2)

Interstitial collagenase = biological target: T1, Interstitial collagenase (Homo sapiens, UniProt P03956)
T1 sequence (P03956 whole entry): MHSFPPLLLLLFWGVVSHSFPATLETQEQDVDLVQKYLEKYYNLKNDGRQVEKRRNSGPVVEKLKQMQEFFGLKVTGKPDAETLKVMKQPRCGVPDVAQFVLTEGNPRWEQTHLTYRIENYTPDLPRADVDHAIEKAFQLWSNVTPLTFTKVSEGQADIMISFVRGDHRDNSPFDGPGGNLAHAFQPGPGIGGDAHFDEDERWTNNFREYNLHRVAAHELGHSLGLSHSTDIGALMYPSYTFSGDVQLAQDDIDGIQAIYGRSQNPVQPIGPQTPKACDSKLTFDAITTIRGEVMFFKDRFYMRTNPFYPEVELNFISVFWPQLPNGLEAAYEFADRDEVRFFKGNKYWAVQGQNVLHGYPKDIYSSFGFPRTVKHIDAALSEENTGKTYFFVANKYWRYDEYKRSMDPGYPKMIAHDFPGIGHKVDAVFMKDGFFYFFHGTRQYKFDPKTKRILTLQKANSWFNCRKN
Description: Inhibitory activity against the Matrix Metalloprotease 1 (MMP-1)

Sequence of Neutrophil collagenase (P22894 whole entry): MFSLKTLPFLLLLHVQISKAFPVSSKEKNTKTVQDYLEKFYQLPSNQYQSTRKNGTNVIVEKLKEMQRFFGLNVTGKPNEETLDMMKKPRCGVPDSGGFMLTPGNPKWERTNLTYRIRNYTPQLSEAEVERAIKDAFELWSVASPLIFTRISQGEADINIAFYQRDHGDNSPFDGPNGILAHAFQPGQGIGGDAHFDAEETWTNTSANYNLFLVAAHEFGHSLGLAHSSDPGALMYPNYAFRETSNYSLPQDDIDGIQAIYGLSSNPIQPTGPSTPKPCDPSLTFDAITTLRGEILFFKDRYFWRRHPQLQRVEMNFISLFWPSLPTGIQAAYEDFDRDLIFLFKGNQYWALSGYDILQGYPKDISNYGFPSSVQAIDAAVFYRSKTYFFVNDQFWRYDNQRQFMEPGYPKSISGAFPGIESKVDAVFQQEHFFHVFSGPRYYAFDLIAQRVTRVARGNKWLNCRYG
Sequence of Matrix metalloproteinase-9 (P14780 whole entry): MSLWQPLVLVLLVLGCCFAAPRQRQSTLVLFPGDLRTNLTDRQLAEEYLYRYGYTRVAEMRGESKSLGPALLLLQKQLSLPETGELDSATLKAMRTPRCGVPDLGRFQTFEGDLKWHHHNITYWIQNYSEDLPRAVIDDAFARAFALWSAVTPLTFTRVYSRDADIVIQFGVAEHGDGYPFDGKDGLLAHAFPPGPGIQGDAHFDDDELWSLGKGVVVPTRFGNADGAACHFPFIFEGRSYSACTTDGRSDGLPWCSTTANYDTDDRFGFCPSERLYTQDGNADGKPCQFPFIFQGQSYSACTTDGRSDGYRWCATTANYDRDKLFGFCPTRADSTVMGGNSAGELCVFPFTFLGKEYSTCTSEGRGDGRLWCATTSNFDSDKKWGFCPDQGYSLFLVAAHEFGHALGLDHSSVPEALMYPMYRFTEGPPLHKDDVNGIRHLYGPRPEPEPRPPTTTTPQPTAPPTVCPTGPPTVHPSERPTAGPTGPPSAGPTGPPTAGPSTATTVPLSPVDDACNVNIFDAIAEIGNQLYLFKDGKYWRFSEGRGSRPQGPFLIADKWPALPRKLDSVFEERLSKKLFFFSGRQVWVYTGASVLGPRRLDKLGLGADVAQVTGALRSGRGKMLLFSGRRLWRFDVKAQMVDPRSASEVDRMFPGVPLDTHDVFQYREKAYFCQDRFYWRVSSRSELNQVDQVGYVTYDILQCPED
Sequence of 72 kDa type IV collagenase (P08253 whole entry): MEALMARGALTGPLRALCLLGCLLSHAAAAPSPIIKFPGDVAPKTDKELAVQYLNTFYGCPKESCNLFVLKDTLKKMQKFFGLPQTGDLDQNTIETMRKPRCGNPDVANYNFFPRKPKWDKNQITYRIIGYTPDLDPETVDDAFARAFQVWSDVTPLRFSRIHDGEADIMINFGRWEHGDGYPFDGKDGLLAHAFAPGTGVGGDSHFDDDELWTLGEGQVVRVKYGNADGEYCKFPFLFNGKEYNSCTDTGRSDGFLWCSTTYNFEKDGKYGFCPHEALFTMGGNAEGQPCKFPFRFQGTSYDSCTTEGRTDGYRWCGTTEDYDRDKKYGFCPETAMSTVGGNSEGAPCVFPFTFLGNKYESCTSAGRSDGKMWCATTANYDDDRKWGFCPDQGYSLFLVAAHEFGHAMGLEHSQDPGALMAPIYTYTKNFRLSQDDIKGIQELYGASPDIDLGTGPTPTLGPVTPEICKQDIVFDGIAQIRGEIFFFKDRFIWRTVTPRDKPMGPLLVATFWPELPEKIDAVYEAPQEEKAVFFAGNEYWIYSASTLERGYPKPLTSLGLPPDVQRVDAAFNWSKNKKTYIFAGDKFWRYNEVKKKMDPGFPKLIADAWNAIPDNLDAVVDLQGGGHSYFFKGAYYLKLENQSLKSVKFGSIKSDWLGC

Row | Compound | Ki (Neutrophil collagenase) [nM] | Ki [1] [nM] | Ki [2] [nM] | Ki (Interstitial collagenase) [nM]
1 | CC(C)(C)OC(=O)Nc1cccc(S(=O)(=O)N(CC(=O)NO)Cc2ccc([N+](=O)[O-])cc2)c1 | 15 | 14 | 11 | 26
2 | O=C(CN(Cc1ccc([N+](=O)[O-])cc1)Sc1ccc([N+](=O)[O-])cc1)NO | 8 | 11 | 10 | 18
3 | CN(C)c1cccc2c(S(=O)(=O)N(CC(=O)NO)Cc3ccc([N+](=O)[O-])cc3)cccc12 | 58 | 53 | 41 | 83
4 | CC(C)(C)OC(=O)Nc1ccc(S(=O)(=O)N(CC(=O)NO)Cc2ccc([N+](=O)[O-])cc2)cc1 | 11 | 10 | 10 | 17
5 | O=C(CN(Cc1ccc([N+](=O)[O-])cc1)S(=O)(=O)c1ccc(NC(=O)NS(=O)(=O)c2ccc(F)cc2)cc1)NO | 0.5 | 1.2 | 0.6 | 54
6 | CS(=O)(=O)N(CC(=O)NO)Cc1ccc([N+](=O)[O-])cc1 | 24 | 30 | 19 | 75
7 | O=C(CN(Cc1ccc([N+](=O)[O-])cc1)S(=O)(=O)c1ccc([N+](=O)[O-])cc1)NO | 7 | 8 | 9 | 15
8 | O=C(CN(Cc1ccc([N+](=O)[O-])cc1)S(=O)(=O)c1cccs1)NO | 12 | 10 | 13 | 14
9 | Cc1cc(C)c(S(=O)(=O)N(CC(=O)NO)Cc2ccc([N+](=O)[O-])cc2)c(C)c1 | 29 | 39 | 25 | 36
10 | O=C(CN(Cc1ccc([N+](=O)[O-])cc1)S(=O)(=O)c1ccc([N+](=O)[O-])c(Cl)c1)NO | 6 | 7 | 7 | 31
11 | O=C(CN(Cc1ccc([N+](=O)[O-])cc1)C(=O)NS(=O)(=O)c1ccc(Cl)cc1)NO | 4 | 5 | 3 | 46
12 | Cc1ccccc1S(=O)(=O)NC(=O)Nc1cccc(S(=O)(=O)N(CC(=O)NO)Cc2ccc([N+](=O)[O-])cc2)c1 | 2 | 3 | 2.8 | 58
13 | O=C(O)CN(Cc1ccc([N+](=O)[O-])cc1)S(=O)(=O)c1cccc(NC(=O)NS(=O)(=O)c2ccc(F)cc2)c1 | 34 | 18 | 15 | > 100
14 | O=C(CN(Cc1ccc([N+](=O)[O-])cc1)S(=O)(=O)c1cc(Cl)ccc1Cl)NO | 13 | 17 | 10 | 9
15 | COc1ccc(S(=O)(=O)N(CC(=O)NO)Cc2ccc([N+](=O)[O-])cc2)cc1NC(=O)OC(C)(C)C | 7 | 7 | 5 | 25
16 | O=C(O)CN(Cc1ccc([N+](=O)[O-])cc1)S(=O)(=O)c1ccc(NC(=O)NS(=O)(=O)c2ccc(Cl)cc2)cc1 | 24 | 36 | 21 | 95
17 | Cc1ccc(S(=O)(=O)NC(=O)Nc2ccc(S(=O)(=O)N(CC(=O)O)Cc3ccc([N+](=O)[O-])cc3)cc2)cc1 | 28 | 25 | 24 | 94
18 | O=C(CN(Cc1ccc([N+](=O)[O-])cc1)S(=O)(=O)c1ccc(NC(=O)NS(=O)(=O)c2ccccc2)cc1)NO | 0.7 | 0.9 | 0.6 | 61
19 | O=C(CN(Cc1ccc([N+](=O)[O-])cc1)S(=O)(=O)c1ccc(F)cc1)NO | 15 | 14 | 15 | 19
20 | Cc1ccc(S(=O)(=O)NC(=O)N(CC(=O)NO)Cc2ccc([N+](=O)[O-])cc2)cc1 | 6 | 8 | 6 | 54
21 | O=C(O)CN(Cc1ccc([N+](=O)[O-])cc1)S(=O)(=O)c1cccc(NC(=O)NS(=O)(=O)c2ccccc2)c1 | 27 | 22 | 19 | > 100
22 | O=C(O)CN(Cc1ccc([N+](=O)[O-])cc1)S(=O)(=O)c1ccc(NC(=O)NS(=O)(=O)c2ccccc2)cc1 | 23 | 21 | 18 | > 100

Row | Compound | Ki (Neutrophil collagenase) [nM] | Ki [1] [nM] | Ki [2] [nM] | Ki (Interstitial collagenase) [nM]
23 | Cc1ccc(S(=O)(=O)NC(=O)Nc2cccc(S(=O)(=O)N(CC(=O)NO)Cc3ccc([N+](=O)[O-])cc3)c2)cc1 | 2.1 | 3.1 | 2.5 | 53
24 | Cc1ccc(S(=O)(=O)N(CC(=O)NO)Cc2ccc([N+](=O)[O-])cc2)cc1 | 24 | 27 | 20 | 30
25 | O=C(CN(Cc1ccc([N+](=O)[O-])cc1)S(=O)(=O)c1cccc(C(F)(F)F)c1)NO | 0.7 | 0.8 | 1.1 | 5
26 | Cc1ccc(S(=O)(=O)NC(=O)Nc2cccc(S(=O)(=O)N(CC(=O)O)Cc3ccc([N+](=O)[O-])cc3)c2)cc1 | 30 | 21 | 21 | > 100
27 | O=C(CN(Cc1ccc([N+](=O)[O-])cc1)S(=O)(=O)c1ccc(C(=O)O)cc1)NO | 2.4 | 2.8 | 2.5 | 34
28 | O=C(CN(Cc1ccc([N+](=O)[O-])cc1)S(=O)(=O)c1ccc(NC(=O)NS(=O)(=O)c2ccc(Cl)cc2)cc1)NO | 1.1 | 1 | 0.8 | 50
29 | O=C(CN(Cc1ccc([N+](=O)[O-])cc1)C(=O)Nc1cccc2ccccc12)NO | 39 | 33 | 35 | > 100
30 | O=C(CN(Cc1ccc([N+](=O)[O-])cc1)C(=S)NC(=O)c1ccccc1)NO | 1.5 | 1.4 | 2 | 37
31 | O=C(CN(Cc1ccc([N+](=O)[O-])cc1)C(=O)NS(=O)(=O)c1ccccc1)NO | 4 | 3 | 5 | 39
32 | CC(=O)Nc1ccc(S(=O)(=O)N(CC(=O)NO)Cc2ccc([N+](=O)[O-])cc2)cc1 | 9 | 12 | 8 | 14
33 | O=C(CN(Cc1ccc([N+](=O)[O-])cc1)S(=O)(=O)C(F)(F)C(F)(F)C(F)(F)C(F)(F)C(F)(F)C(F)(F)C(F)(F)C(F)(F)F)NO | 1.3 | 1.3 | 0.9 | 79
34 | O=C(CN(Cc1ccc([N+](=O)[O-])cc1)C(=O)Nc1ccc(Cl)c(Cl)c1)NO | 5 | 7 | 6 | 31
35 | O=C(CN(Cc1ccc([N+](=O)[O-])cc1)S(=O)(=O)c1ccc(I)cc1)NO | 17 | 16 | 19 | 29
36 | CN(C)S(=O)(=O)N(CC(=O)NO)Cc1ccc([N+](=O)[O-])cc1 | 35 | 43 | 36 | 26
37 | Cc1ccccc1S(=O)(=O)NC(=O)Nc1ccc(S(=O)(=O)N(CC(=O)NO)Cc2ccc([N+](=O)[O-])cc2)cc1 | 1.5 | 0.7 | 1.6 | 72
38 | O=C(CN(Cc1ccc([N+](=O)[O-])cc1)S(=O)(=O)c1cccc(NC(=O)NS(=O)(=O)c2ccc(Cl)cc2)c1)NO | 1.3 | 1.6 | 1.5 | 50
39 | O=C(CN(Cc1ccc([N+](=O)[O-])cc1)S(=O)(=O)c1ccccc1[N+](=O)[O-])NO | 13 | 14 | 15 | 59
40 | O=C(CN(Cc1ccc([N+](=O)[O-])cc1)S(=O)(=O)C(Cl)(Cl)Cl)NO | 19 | 25 | 17 | 24
41 | O=C(CN(Cc1ccc([N+](=O)[O-])cc1)S(=O)(=O)c1cccc(NC(=O)NS(=O)(=O)c2ccc(F)cc2)c1)NO | 1.4 | 2.5 | 1.8 | 49
42 | O=C(CN(Cc1ccc([N+](=O)[O-])cc1)S(=O)(=O)c1cccc(C(=O)O)c1)NO | 3.3 | 2.5 | 3 | 41
43 | O=C(CN(Cc1ccc([N+](=O)[O-])cc1)S(=O)(=O)c1cccc(NC(=O)NS(=O)(=O)c2ccccc2)c1)NO | 1 | 1.3 | 1.2 | 60
44 | O=C(CN(Cc1ccc([N+](=O)[O-])cc1)S(=O)(=O)c1ccc(Br)cc1)NO | 21 | 21 | 13 | 25
